Source: patent US12544373B2, “Treatment of cancer, inflammatory diseases and autoimmune diseases” (Usher III Initiative, Inc., priority 2020, dated 2026)
Where two headings read alike, the source gives them in different places.

Experiments:
Assay type in all cases: cell-based, human
OVXF 899 = test: CellTiter-Blue 2D monolayer assay (Example 1), ovarian; details: for Test/Control (%): 72 h
Description: (§1) Compound 85 was assessed in 10 human tumor cell lines (see Table 3) for anti-cancer activity in vitro using a CellTiter-Blue® based 2D monolayer assay.
(§2) CellTiter-Blue® Cell Viability Assay: Tumor cells were grown at 37° C. in a humidified atmosphere with 5% CO2 in RPMI medium, supplemented with 10% (v/v) fetal calf serum and 50 μg/ml gentamicin (140 μl/well). Cultures were incubated at 37° C. and 5% CO2 in a humidified atmosphere. After 24 hours, 10 μl of Compound 85 was added, and left on the cells for another 72 hours (incubation period). Compound 85 was tested at 5 concentrations (0.003 μM, 0.03 μM, 0.3 μM, 3 μM, and 30 μM) and serially diluted in DMSO, mixed with cell culture medium, and added to the assay plates by using a Tecan Freedom EVO 200 robotic platform. The DMSO concentration was kept constant at 0.3% yip across the assay plate. Every 96 well plate included six DMSO-treated control wells and Compound 85-treated wells in duplicate at 5 concentrations. Viability of cells was quantified using the CellTiter-Blue® cell viability assay (Promega G8081). After incubation of cells, the CellTiter-Blue® reagent was brought to ambient temperature. Next, 20 μl of CellTiter-Blue® reagent were added to each well. After incubation tier up to 4 hours, fluorescence (FU) was measured using the EnSpire® multimode plate reader (Perkin Elmer) ([…]).
(§3) Data Evaluation: Sigmoidal concentration-response curves were fitted to the data points (test-versus-control; T/C values) obtained for each tumor model using 4 parameter non-linear curve fit (Charles River DRS Datawarehouse Software). Drug effects are expressed in terms of the percentage of the fluorescence signal, obtained by comparison of the mean signal in the treated wells with the mean signal of the untreated controls (T/C-value [%]) (Table 4). IC50 and IC70 values were reported as relative and absolute IC50 and IC70 values (Table 5). The absolute IC50 and IC70 values reflect the concentration of Compound 85 that achieves T/C=50% and T/C=30%, respectively. The relative IC50 value is the concentration of Compound 85 that gives a response half way between the top and bottom plateau of the sigmoidal concentration-response curve (inflection point of the curve).

OVXF A2780 = test: as above; details: for Test/Control (%): 72 h
Description: as §1, §2, §3

MEXF 1737 = test: CellTiter-Blue Cell Viability Assay (Example 2), melanoma; details: for T/C %: 72 h
Source text: (§4) The CellTiter-Blue® Cell Viability Assay was used to assess the viability of cells from various cancer cell lines, in the presence or absence of Compound 85 (at different concentrations). This assay provides a homogeneous, fluorometric method for estimating the number of viable cells present in multi-well plates. Viable cells retain the ability to reduce resazurin to resorufin, which is highly fluorescent. […] The fluorescence produced is proportional to the number of viable cells. There is a linear relationship between cell number and fluorescence.
(§5) Cancer cells (see Table 6) were harvested from exponential phase cultures, counted and plated in 96 well flat-bottom microtiter plates, at a cell density 6,000-20,000 cells/well, depending on the cell line's growth rate. The culture medium was supplemented with 10% (v/v) foetal calf serum and 50 μg/mL gentamicin (140 μL/well). Cultures were incubated at 37° C. and 5% CO2 in a humidified atmosphere.
(§6) Compound 85 was serially diluted in DMSO, and five Compound 85 concentrations in half-log increments were used: 0.03 μM, 0.09 μM, 0.30 μM, 1.0 μM, and 3.0 μM. After 24 h, 10 μL of Compound 85 (dissolved in DMSO) or control (DMSO) medium were added, in duplicates, and left on the cells for another 72 h. Compound 85 solutions were added to the assay plates using a Tecan Freedom EVO 200 robotic platform. The DMSO concentration was kept constant at 0.3% v/v across the assay plate.
(§7) After incubation of up to 72 hours, fluorescence (FU) was measured using the EnSpire® multimode plate reader (Perkin Elmer) (excitation λ=570 nm, emission λ=600 nm).
(§8) Cancer cell lines used: Compound 85's anti-cancer effect was tested in 20 human cancer-cell lines representing nine cancer types (Table 6).
(§9) The percentage of viable cells in the presence of Compound 85 (Test condition, T), at different concentrations, are presented in Table 7 and expressed as a percentage of the number of viable cells in the presence of DMSO without Compound 85 (Control condition, C).
(§10) The relative IC50 is determined as the Compound 85 concentration giving a response halfway between the maximum cell viability signal (i.e., a 100% cell viability, no Compound 85 response) and the minimal viability signal (i.e. maximum cell viability inhibition achieved by Compound 85), in a sigmoidal concentration-effect curve.
(§11) The absolute IC50 is determined as the concentration that is associated with a T/C ratio of 50%.

MEXF 1341 = test: as above; details: for T/C %: 72 h
Source text: as §4, §5, §6, §7, §8, §9, §10, §11

PRXF PC-3 = test: CellTiter-Blue Cell Viability Assay (Example 2), prostate; details: for T/C %: 72 h
Source text: as §4, §5, §6, §7, §8, §9, §10, §11

PRXF DU-145 = test: as above; details: for T/C %: 72 h
Source text: as §4, §5, §6, §7, §8, §9, §10, §11

CC(C)(O)Cn1nc(-c2ccccc2)c2c(Cl)c(-c3ccccc3)nnc21 [Compound 85]
Rel. IC70 (OVXF 899): 739 nM | Test/Control (%) (OVXF 899; 0.003 μM): 108% | Test/Control (%) (OVXF 899; 0.03 μM): 106% | Test/Control (%) (OVXF 899; 0.3 μM): 86% | Test/Control (%) (OVXF 899; 3 μM): 2% | Test/Control (%) (OVXF 899; 30 μM): 1% | Abs. IC70 (OVXF 899; T/C=30%): 775 nM | IC50 (OVXF 899; T/C=50%, read-out: Abs. IC50): 553 nM | Bot. (%) (OVXF 899; bottom plateau of curve): 1% | IC50 (OVXF 899; read-out: Rel. IC50): 522 nM | Top (%) (OVXF 899; top plateau of curve): 107% | Rel. IC70 (OVXF A2780): 1872 nM | Test/Control (%) (OVXF A2780; 0.003 μM): 101% | Test/Control (%) (OVXF A2780; 0.03 μM): 94% | Test/Control (%) (OVXF A2780; 0.3 μM): 101% | Test/Control (%) (OVXF A2780; 3 μM): 1% | Test/Control (%) (OVXF A2780; 30 μM): 0% | Abs. IC70 (OVXF A2780; T/C=30%): 1868 nM | IC50 (OVXF A2780; T/C=50%, read-out: Abs. IC50): 1690 nM | Bot. (%) (OVXF A2780; bottom plateau of curve): 0% | IC50 (OVXF A2780; read-out: Rel. IC50): 1700 nM | Top (%) (OVXF A2780; top plateau of curve): 99% | Absolute IC70 (MEXF 1737): 925 nM | Relative IC70 (MEXF 1737): 864 nM | T/C % (MEXF 1737; 0.03 μM): 99% | T/C % (MEXF 1737; 0.095 μM): 97% | T/C % (MEXF 1737; 0.3 μM): 101% | T/C % (MEXF 1737; 0.95 μM): 27% | T/C % (MEXF 1737; 3.0 μM): 16% | IC50 (MEXF 1737; read-out: Absolute IC50): 826 nM | IC50 (MEXF 1737; read-out: Relative IC50): 799 nM | Absolute IC70 (MEXF 1341): 445 nM | Relative IC70 (MEXF 1341): 451 nM | T/C % (MEXF 1341; 0.03 μM): 97% | T/C % (MEXF 1341; 0.095 μM): 91% | T/C % (MEXF 1341; 0.3 μM): 82% | T/C % (MEXF 1341; 0.95 μM): 0% | T/C % (MEXF 1341; 3.0 μM): 0% | IC50 (MEXF 1341; read-out: Absolute IC50): 391 nM | IC50 (MEXF 1341; read-out: Relative IC50): 399 nM | Absolute IC70 (PRXF PC-3): 1349 nM | Relative IC70 (PRXF PC-3): 1326 nM | T/C % (PRXF PC-3; 0.03 μM): 104% | T/C % (PRXF PC-3; 0.095 μM): 103% | T/C % (PRXF PC-3; 0.3 μM): 103% | T/C % (PRXF PC-3; 0.95 μM): 2% | T/C % (PRXF PC-3; 3.0 μM): 1% | IC50 (PRXF PC-3; read-out: Absolute IC50): 1100 nM | IC50 (PRXF PC-3; read-out: Relative IC50): 1080 nM | Absolute IC70 (PRXF DU-145): 1528 nM | Relative IC70 (PRXF DU-145): 1376 nM | T/C % (PRXF DU-145; 0.03 μM): 100% | T/C % (PRXF DU-145; 0.095 μM): 110% | T/C % (PRXF DU-145; 0.3 μM): 102% | T/C % (PRXF DU-145; 0.95 μM): 11% | T/C % (PRXF DU-145; 3.0 μM): 6% | IC50 (PRXF DU-145; read-out: Absolute IC50): 1090 nM | IC50 (PRXF DU-145; read-out: Relative IC50): 1010 nM
